BigSolDB 2.1

Cc1cc([N+](=O)[O-])ccc1N
Conditions | solubility (mole fraction)
in 2-butanone, 278.15 K | 0.0846
in 2-butanone, 280.65 K | 0.0899
in 2-butanone, 283.15 K | 0.0955
in 2-butanone, 285.65 K | 0.101
in 2-butanone, 288.15 K | 0.107
in 2-butanone, 290.65 K | 0.114
in 2-butanone, 293.15 K | 0.12
in 2-butanone, 295.65 K | 0.127
in 2-butanone, 298.15 K | 0.134
in 2-butanone, 300.65 K | 0.141
in 2-butanone, 303.15 K | 0.149
in 2-butanone, 305.65 K | 0.157
in 2-butanone, 308.15 K | 0.165
in 2-butanone, 310.65 K | 0.174
in 2-butanone, 313.15 K | 0.183
in acetone, 278.15 K | 0.0764
in acetone, 280.65 K | 0.0815
in acetone, 283.15 K | 0.0875
in acetone, 285.65 K | 0.0933
in acetone, 288.15 K | 0.0996
in acetone, 290.65 K | 0.106
in acetone, 293.15 K | 0.113
in acetone, 295.65 K | 0.12
in acetone, 298.15 K | 0.127
in acetone, 300.65 K | 0.135
in acetone, 303.15 K | 0.142
in acetone, 305.65 K | 0.151
in acetonitrile, 278.15 K | 0.0308
in acetonitrile, 280.65 K | 0.0335
in acetonitrile, 283.15 K | 0.0362
in acetonitrile, 285.65 K | 0.039
in acetonitrile, 288.15 K | 0.0423
in acetonitrile, 290.65 K | 0.0456
in acetonitrile, 293.15 K | 0.0491
in acetonitrile, 295.65 K | 0.0528
in acetonitrile, 298.15 K | 0.0566
in acetonitrile, 300.65 K | 0.0607
in acetonitrile, 303.15 K | 0.0651
in acetonitrile, 305.65 K | 0.0699
in acetonitrile, 308.15 K | 0.0747
in acetonitrile, 310.65 K | 0.0797
in acetonitrile, 313.15 K | 0.0852
in cyclohexane, 283.15 K | 2.5e-05
in cyclohexane, 285.65 K | 2.87e-05
in cyclohexane, 288.15 K | 3.37e-05
in cyclohexane, 290.65 K | 3.87e-05
in cyclohexane, 293.15 K | 4.47e-05
in cyclohexane, 295.65 K | 5.27e-05
in cyclohexane, 298.15 K | 6.13e-05
in cyclohexane, 300.65 K | 6.99e-05
in cyclohexane, 303.15 K | 8.08e-05
in cyclohexane, 305.65 K | 9.26e-05
in cyclohexane, 308.15 K | 0.000108
in cyclohexane, 310.65 K | 0.000122
in cyclohexane, 313.15 K | 0.000139
in ethanol, 278.15 K | 0.00732
in ethanol, 280.65 K | 0.00807
in ethanol, 283.15 K | 0.00887
in ethanol, 285.65 K | 0.00974
in ethanol, 288.15 K | 0.0107
in ethanol, 290.65 K | 0.0117
in ethanol, 293.15 K | 0.0127
in ethanol, 295.65 K | 0.0139
in ethanol, 298.15 K | 0.0152
in ethanol, 300.65 K | 0.0165
in ethanol, 303.15 K | 0.018
in ethanol, 305.65 K | 0.0197
in ethanol, 308.15 K | 0.0213
in ethanol, 310.65 K | 0.0231
in ethanol, 313.15 K | 0.025
in ethyl acetate, 278.15 K | 0.062
in ethyl acetate, 280.65 K | 0.0669
in ethyl acetate, 283.15 K | 0.0722
in ethyl acetate, 285.65 K | 0.0776
in ethyl acetate, 288.15 K | 0.0837
in ethyl acetate, 290.65 K | 0.0897
in ethyl acetate, 293.15 K | 0.096
in ethyl acetate, 295.65 K | 0.103
in ethyl acetate, 298.15 K | 0.11
in ethyl acetate, 300.65 K | 0.117
in ethyl acetate, 303.15 K | 0.125
in ethyl acetate, 305.65 K | 0.133
in ethyl acetate, 308.15 K | 0.142
in ethyl acetate, 310.65 K | 0.151
in ethyl acetate, 313.15 K | 0.16
in isopropanol, 278.15 K | 0.00459
in isopropanol, 280.65 K | 0.00511
in isopropanol, 283.15 K | 0.00572
in isopropanol, 285.65 K | 0.00635
in isopropanol, 288.15 K | 0.00707
in isopropanol, 290.65 K | 0.00781
in isopropanol, 293.15 K | 0.00865
in isopropanol, 295.65 K | 0.00961
in isopropanol, 298.15 K | 0.0106
in isopropanol, 300.65 K | 0.0118
in isopropanol, 303.15 K | 0.0129
in isopropanol, 305.65 K | 0.0142
in isopropanol, 308.15 K | 0.0157
in isopropanol, 310.65 K | 0.0172
in isopropanol, 313.15 K | 0.0189
in methanol, 278.15 K | 0.00834
in methanol, 280.65 K | 0.00913
in methanol, 283.15 K | 0.0101
in methanol, 285.65 K | 0.0109
in methanol, 288.15 K | 0.0119
in methanol, 290.65 K | 0.0131
in methanol, 293.15 K | 0.0142
in methanol, 295.65 K | 0.0155
in methanol, 298.15 K | 0.0168
in methanol, 300.65 K | 0.018
in methanol, 303.15 K | 0.0198
in methanol, 305.65 K | 0.0213
in methanol, 308.15 K | 0.0231
in methanol, 310.65 K | 0.0249
in methanol, 313.15 K | 0.027
in n-butanol, 278.15 K | 0.00492
in n-butanol, 280.65 K | 0.00552
in n-butanol, 283.15 K | 0.00618
in n-butanol, 285.65 K | 0.00691
in n-butanol, 288.15 K | 0.00778
in n-butanol, 290.65 K | 0.00858
in n-butanol, 293.15 K | 0.00951
in n-butanol, 295.65 K | 0.0106
in n-butanol, 298.15 K | 0.0118
in n-butanol, 300.65 K | 0.0131
in n-butanol, 303.15 K | 0.0145
in n-butanol, 305.65 K | 0.016
in n-butanol, 308.15 K | 0.0177
in n-butanol, 310.65 K | 0.0196
in n-butanol, 313.15 K | 0.0216
in n-propanol, 278.15 K | 0.00631
in n-propanol, 280.65 K | 0.00701
in n-propanol, 283.15 K | 0.00776
in n-propanol, 285.65 K | 0.00853
in n-propanol, 288.15 K | 0.00939
in n-propanol, 290.65 K | 0.0103
in n-propanol, 293.15 K | 0.0113
in n-propanol, 295.65 K | 0.0124
in n-propanol, 298.15 K | 0.0136
in n-propanol, 300.65 K | 0.0148
in n-propanol, 303.15 K | 0.0162
in n-propanol, 305.65 K | 0.0176
in n-propanol, 308.15 K | 0.0192
in n-propanol, 310.65 K | 0.0209
in n-propanol, 313.15 K | 0.0227
in toluene, 278.15 K | 0.00159
in toluene, 280.65 K | 0.00178
in toluene, 283.15 K | 0.00204
in toluene, 285.65 K | 0.0023
in toluene, 288.15 K | 0.00258
in toluene, 290.65 K | 0.00285
in toluene, 293.15 K | 0.00317
in toluene, 295.65 K | 0.00353
in toluene, 298.15 K | 0.00391
in toluene, 300.65 K | 0.00439
in toluene, 303.15 K | 0.0048
in toluene, 305.65 K | 0.00527
in toluene, 308.15 K | 0.00584
in toluene, 310.65 K | 0.00645
in toluene, 313.15 K | 0.00714
